Measured values reported in patent US6911454B1, “Method for potentiating primary drugs in treating multidrug resistant disease” (priority 1989, dated 2005).

Experiment: L.D.50 by single escalating injections
Assay type: in vivo, mice
Method: In addition, the effects of d-Tetrandrine-(S) plus doxorubicin in Nu/Nu athymic mice inoculated with DX20 sarcoma cells, 76×resistant when compared to the parent MES-SA cells were examined. Four cohorts of nude animals bearing the DX20 tumor were treated in groups of 5 (control, doxorubicin, d-tetrandrine, and doxorubicin+d-tetrandrine). […] (See FIG. 6). Tumor size was calculated using the formula (4 Pi/3) X*Y*2Z. […] An L.D.50 dose of 260 mg/kg was also calculated by administering single escalating injections of the compound. Tables I & II and FIG. 6 give the actual measurements.

Compound: COc1ccc2cc1Oc1ccc(cc1)C[C@H]1c3cc(c(OC)cc3CCN1C)Oc1c(OC)c(OC)cc3c1[C@H](C2)N(C)CC3 [TT, tetrandrine]
- L.D.50 dose: 260 mg/kg
